Data published in paper PMC6493773, “Structure and mechanism of TagA, a novel membrane-associated glycosyltransferase that produces wall teichoic acids in pathogenic bacteria” (PLoS Pathogens, 2019).

Columns and labels:
[1] = biological target: T1, full-length TagA from S. aureus (Staphylococcus aureus, UniProt Q7A714); test: anion-exchange HPLC of UDP formation, […] nm; assay type: biochemical; conditions: 200 nM enzyme; UDP-ManNAc made in situ from 100 μM UDP-GlcNAc by MnaA; 100 μM lipid-α analog; pH 7.5, 250 mM NaCl, 30°C
T1 construct: gene tarA; full-length; strain and plasmid only in supplement
T1 sequence (Q7A714 whole entry): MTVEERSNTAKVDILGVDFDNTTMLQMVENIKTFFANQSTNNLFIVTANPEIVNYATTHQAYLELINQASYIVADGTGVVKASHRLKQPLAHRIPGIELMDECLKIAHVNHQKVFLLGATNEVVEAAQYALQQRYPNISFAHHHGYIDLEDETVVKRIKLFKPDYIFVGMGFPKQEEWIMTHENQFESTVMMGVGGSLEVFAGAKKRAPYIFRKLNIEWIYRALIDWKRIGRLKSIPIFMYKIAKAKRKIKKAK

[2] = biological target: T2, full-length TagA from T. italicus (UniProt D3T4E0); test: anion-exchange HPLC of UDP formation, […] nm; assay type: biochemical, Thermoanaerobacter thermocopriae; conditions: 200 nM enzyme; UDP-ManNAc made in situ from 100 μM UDP-GlcNAc by MnaA; 100 μM lipid-α analog; pH 7.5, 250 mM NaCl, 30°C
T2 construct: gene Thit_1850; full-length (195 + 49 C-terminal residues); purification details only in supplement
T2 sequence (D3T4E0 entry or part of it): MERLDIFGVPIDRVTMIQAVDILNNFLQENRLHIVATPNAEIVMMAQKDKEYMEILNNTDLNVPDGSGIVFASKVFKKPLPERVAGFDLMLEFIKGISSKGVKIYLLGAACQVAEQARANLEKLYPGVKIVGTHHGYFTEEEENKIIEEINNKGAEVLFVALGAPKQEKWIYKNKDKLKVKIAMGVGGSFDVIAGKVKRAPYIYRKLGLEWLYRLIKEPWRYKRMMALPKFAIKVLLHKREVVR

Row | SMILES | anion-exchange HPLC of UDP formation, 271 nm [1] | anion-exchange HPLC of UDP formation, 271 nm [2]
1 | CC(=O)N[C@@H]1[C@@H](OP(=O)(O)OP(=O)(O)OC[C@H]2O[C@@H](n3ccc(=O)[nH]c3=O)[C@H](O)[C@@H]2O)O[C@H](CO)[C@@H](O)[C@@H]1O [UDP-ManNAc] | full-length TagA enzymes from T. italicus and S. aureus exhibit similar transferase activities in vitro | we reconstituted its GT activity in vitro using UDP-ManNAc and a lipid-α analog
2 | CCCCCCCCCCCCCOP(=O)(O)OP(=O)(O)O[C@H]1O[C@H](CO)[C@@H](O)[C@H](O)[C@H]1NC(C)=O [lipid-α analog] | – | using UDP-ManNAc and a lipid-α analog that replaces its undecaprenyl chain with tridecane
